# Test results as given in the supplement of paper PMC11061612.
# Experiments:
# Assay in all cases: Bliss excess, mean over the matrix (fraction); higher = more synergy
# A498 (Kidney Carcinoma) = system: A498 (Kidney Carcinoma)
# In short: (§1)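 Bliss excess equals the observed combination effect minus the expected value EA + EB − EA·EB, where EA and EB are the effects of each agent alone. Combination Emax is the second-highest inhibition within the matrix. Inhibition was scaled from CellTiter-Glo 2.0 luminescence, with 0 set by vehicle wells and 1 by blank wells, after 72 hours of two-drug dosing of cells plated in 1536-well plates.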
# FU97 (Gastric Carcinoma) = system: FU97 (Gastric Carcinoma)
# In short: as §1
# 8-MG-BA (Glioblastoma) = system: 8-MG-BA (Glioblastoma)
# In short: as §1
# CAS-1 (Glioblastoma) = system: CAS-1 (Glioblastoma)
# In short: as §1
# [1] = system: NCI-H64 (Small Cell Lung Carcinoma)
# In short: as §1
# [2] = system: NCI-H1581 (Non-Small Cell Lung Carcinoma)
# In short: as §1
# [3] = system: TT2609-C02 (Thyroid Gland Carcinoma)
# In short: as §1
# IGR-37 (Melanoma) = system: IGR-37 (Melanoma)
# In short: as §1
# [4] = system: VCaP (Prostate Carcinoma)
# In short: as §1
# PA-1 (Ovarian Carcinoma) = system: PA-1 (Ovarian Carcinoma)
# In short: as §1
# [5] = system: PANC-10-05 (Pancreatic Carcinoma)
# In short: as §1
# NY (Osteosarcoma) = system: NY (Osteosarcoma)
# In short: as §1
# [6] = system: ONS-76 (Other Solid Carcinomas)
# In short: as §1
# [7] = system: HCC1954 (Breast Carcinoma)
# In short: as §1
# GI-ME-N (Neuroblastoma) = system: GI-ME-N (Neuroblastoma)
# In short: as §1
# [8] = system: CAL-29 (Bladder Carcinoma)
# In short: as §1
# ARH-77 (Non-Cancerous) = system: ARH-77 (Non-Cancerous)
# In short: as §1
# [9] = system: MDST8 (Colorectal Carcinoma)
# In short: as §1
# NCI-H2591 (Mesothelioma) = system: NCI-H2591 (Mesothelioma)
# In short: as §1
# [10] = system: COR-L311 (Small Cell Lung Carcinoma)
# In short: as §1
SMILES,Bliss excess (A498 (Kidney Carcinoma)),Bliss excess (FU97 (Gastric Carcinoma)),Bliss excess (8-MG-BA (Glioblastoma)),Bliss excess (CAS-1 (Glioblastoma)),Bliss excess [1],Bliss excess [2],Bliss excess [3],Bliss excess (IGR-37 (Melanoma)),Bliss excess [4],Bliss excess (PA-1 (Ovarian Carcinoma)),Bliss excess [5],Bliss excess (NY (Osteosarcoma)),Bliss excess [6],Bliss excess [7],Bliss excess (GI-ME-N (Neuroblastoma)),Bliss excess [8],Bliss excess (ARH-77 (Non-Cancerous)),Bliss excess [9],Bliss excess (NCI-H2591 (Mesothelioma)),Bliss excess [10]
"CC(=O)c1c(C)c2cnc(Nc3ccc(N4CCNCC4)cn3)nc2n(C2CCCC2)c1=O [Palbociclib] + Cc1c2c(nn1C)CSCc1cc(n(C)n1)CSc1cc(c3ccccc3c1)OCCCc1c(C(=O)O)n(C)c3c-2c(Cl)ccc13 [AZD5991] (first compound max 10 µM, 7x7, partner max 1 µM)",-0.0779,0.0142,-0.0424,0.0001,-0.0049,-0.0173,-0.0822,-0.0335,-0.0284,0.0052,-0.0768,-0.0358,-0.0372,-0.09,-0.0873,-0.0532,-0.0248,-0.0134,-0.0328,-0.0139
"CC(=O)c1c(C)c2cnc(Nc3ccc(N4CCNCC4)cn3)nc2n(C2CCCC2)c1=O [Palbociclib] + Cn1cnc2c(F)c(Nc3ccc(Br)cc3Cl)c(C(=O)NOCCO)cc21 [Selumetinib] (first compound max 10 µM, 7x7, partner max 10 µM)",-0.0228,0.0707,-0.0061,-0.018,-0.014,0.0466,-0.0666,0.0324,-0.012,-0.0312,-0.0409,-0.0227,0.0132,-0.0152,-0.0012,0.0021,-0.0147,-0.031,-0.0161,-0.0334
"COc1cccc(OCCCN)c1-c1cc(Nc2cnc(C#N)cn2)n[nH]1 [Prexasertib] + C=CCn1c(=O)c2cnc(Nc3ccc(N4CCN(C)CC4)cc3)nc2n1-c1cccc(C(C)(C)O)n1 [AZD1775] (first compound max 1 µM, partner max 1 µM)",-0.0716,0.0052,0.0358,-0.0363,0.0127,0.155,0.0015,0.0322,0.022,0.03,-0.0342,-0.008,-0.0299,0.114,0.0161,-0.0079,0.0493,0.0758,0.0951,0.0559
"COc1cccc(OCCCN)c1-c1cc(Nc2cnc(C#N)cn2)n[nH]1 [Prexasertib] + CCc1c2c(nc3ccc(O)cc13)-c1cc3c(c(=O)n1C2)COC(=O)[C@]3(O)CC [SN-38] (first compound max 1 µM, 7x7, partner max 0.3 µM)",-0.105,-0.032,-0.0166,0.0383,0.0021,0.196,-0.0467,-0.0727,-0.0541,-0.0364,-0.0372,-0.0647,-0.0961,0.123,-0.0326,0.002,-0.0304,-0.1,-0.0353,-0.0058
"COc1cccc(OCCCN)c1-c1cc(Nc2cnc(C#N)cn2)n[nH]1 [Prexasertib] + CN(C)CCCOc1ccc(-c2ccc3ncc4c(c3c2)n(C2CCOCC2)c(=O)n4C)cn1 [AZD0156] (first compound max 1 µM, 7x7, partner max 1 µM)",0.034,-0.0321,-0.0349,-0.0336,-0.0359,0.0112,-0.0426,0.0026,-0.0463,0.0031,-0.0435,0.0007,-0.0148,-0.0298,0.0737,-0.0479,0.0018,-0.0216,-0.0141,-0.0532
"COc1cccc(OCCCN)c1-c1cc(Nc2cnc(C#N)cn2)n[nH]1 [Prexasertib] + C[C@@H]1COCCN1C2=NC(=NC(=C2)C3(CC3)[S@](=N)(=O)C)C4=C5C=CNC5=NC=C4 [AZD6738] (first compound max 1 µM, 7x7, partner max 10 µM)",-0.0514,-0.0427,-0.0239,-0.0095,-0.0184,0.0436,-0.0002,-0.0621,-0.0267,-0.0438,0.0258,-0.0031,-0.0803,0.0079,0.0681,-0.0331,0.0006,-0.0209,0.0187,-0.0363
"COc1cccc(OCCCN)c1-c1cc(Nc2cnc(C#N)cn2)n[nH]1 [Prexasertib] + Cc1cc2ncnn2cc1Nc1ncc2c(n1)n(C1CCOCC1)c(=O)n2C [AZD7648] (first compound max 1 µM, 7x7, partner max 10 µM)",-0.0206,-0.0265,-0.058,-0.0053,-0.0242,0.022,-0.0157,-0.058,-0.0509,0.0205,-0.038,-0.0328,-0.031,-0.0179,0.107,-0.0754,-0.0015,-0.0217,-0.0079,-0.0289
"COc1cccc(OCCCN)c1-c1cc(Nc2cnc(C#N)cn2)n[nH]1 [Prexasertib] + O=C(c1cc(Cc2n[nH]c(=O)c3ccccc23)ccc1F)N1CCN(C(=O)C2CC2)CC1 [Olaparib] (first compound max 1 µM, 7x7, partner max 10 µM)",-0.0622,-0.0288,0.0262,-0.0979,-0.0438,0.0257,-0.0062,-0.0327,-0.041,0.0083,-0.0424,-0.0128,-0.123,-0.0566,-0.0649,-0.185,-0.0485,-0.0484,-0.0683,-0.101
"COc1cc2c(cc1OCCCCCOc1cc3c(cc1OC)C(=O)N1C=C(C)C[C@H]1C=N3)N=C[C@@H]1CC(C)=CN1C2=O [SG3199] + O=C(c1cc(Cc2n[nH]c(=O)c3ccccc23)ccc1F)N1CCN(C(=O)C2CC2)CC1 [Olaparib] (first compound max 0.001 µM, 7x7, partner max 10 µM)",-0.0336,-0.0513,0.011,-0.0058,-0.0539,-0.0322,-0.0234,-0.0238,-0.0455,0.0131,-0.0598,-0.0456,-0.0635,-0.0356,-0.036,-0.0154,-0.0466,-0.0151,-0.0414,0.0282
"CCc1c2c(nc3ccc(O)cc13)-c1cc3c(c(=O)n1C2)COC(=O)[C@]3(O)CC [SN-38] + CN(C)CCCOc1ccc(-c2ccc3ncc4c(c3c2)n(C2CCOCC2)c(=O)n4C)cn1 [AZD0156] (first compound max 0.3 µM, 7x7, partner max 1 µM)",-0.0444,-0.0484,0.0392,-0.0101,-0.0365,0.016,0.0068,-0.0327,-0.018,0.0713,-0.0858,-0.0288,0.0091,0.035,-0.0089,-0.028,0.0037,0.0171,-0.0118,-0.152
"C[C@@H](c1ccc2nccn2c1)n1nnc2ncc(-c3cnn(C)c3)nc21 [Savolitinib] + CC1(C)CCC(CN2CCN(c3ccc(C(=O)NS(=O)(=O)c4ccc(NCC5CCOCC5)c([N+](=O)[O-])c4)c(Oc4cnc5[nH]ccc5c4)c3)CC2)=C(c2ccc(Cl)cc2)C1 [Venetoclax] (first compound max 1 µM, 7x7, partner max 1 µM)",-0.0973,-0.0344,-0.025,-0.055,0.0032,-0.0697,-0.1,-0.0519,-0.0325,-0.0163,-0.0986,-0.0147,-0.0468,-0.0189,-0.0925,-0.0655,-0.0092,-0.0546,-0.0802,-0.022
"C[C@@H](c1ccc2nccn2c1)n1nnc2ncc(-c3cnn(C)c3)nc21 [Savolitinib] + Cc1c2c(nn1C)CSCc1cc(n(C)n1)CSc1cc(c3ccccc3c1)OCCCc1c(C(=O)O)n(C)c3c-2c(Cl)ccc13 [AZD5991] (first compound max 1 µM, 7x7, partner max 1 µM)",-0.032,-0.0118,-0.0303,-0.0584,-0.021,-0.0209,-0.0947,0.0454,-0.0422,-0.0266,-0.0994,-0.0288,-0.0219,-0.0525,-0.0778,-0.0474,-0.0181,-0.0413,-0.0549,-0.0246
"Cn1cnc2c(F)c(Nc3ccc(Br)cc3Cl)c(C(=O)NOCCO)cc21 [Selumetinib] + C=CCn1c(=O)c2cnc(Nc3ccc(N4CCN(C)CC4)cc3)nc2n1-c1cccc(C(C)(C)O)n1 [AZD1775] (first compound max 10 µM, partner max 1 µM)",-0.0218,0.0052,-0.0543,-0.0342,-0.005,0.0258,-0.0169,0.0122,-0.063,-0.001,-0.0898,-0.071,-0.0452,-0.0005,-0.064,0.0074,-0.0518,-0.0165,-0.0318,-0.0518
"Cn1cnc2c(F)c(Nc3ccc(Br)cc3Cl)c(C(=O)NOCCO)cc21 [Selumetinib] + CC(C)n1c(=O)n(C)c2cnc3cc(F)c(-c4ccc(OCCCN5CCCCC5)nc4)cc3c21 [AZD1390] (first compound max 10 µM, 7x7, partner max 0.3 µM)",-0.0489,-0.0344,-0.018,-0.053,-0.0279,0.0074,-0.0387,-0.0398,-0.0387,0.0162,-0.0783,-0.0149,-0.0108,-0.0277,-0.0399,-0.0073,-0.007,-0.0468,-0.0585,-0.0541
"Cn1cnc2c(F)c(Nc3ccc(Br)cc3Cl)c(C(=O)NOCCO)cc21 [Selumetinib] + CCN(CCO)CCCOc1ccc2c(Nc3cc(CC(=O)Nc4cccc(F)c4)[nH]n3)ncnc2c1 [AZD2811] (first compound max 10 µM, 7x7, partner max 1 µM)",0.002,-0.0013,-0.0181,-0.0349,0.0312,-0.0775,0.0055,-0.0274,-0.0336,-0.0998,-0.0367,-0.0102,-0.0464,-0.0098,-0.0614,0.0023,0.0498,-0.0214,-0.0459,-0.0546
